Counter-ions that a name gives are not always drawn.
Tests used:
hM2 receptor = target: T1, hM2 receptor (Homo sapiens, UniProt P08172); assay: Blockade of agonist-mediated [35S]GTPγS binding, CHO-K1 membranes expressing hM2; format: biochemical; conditions: CHO-K1 cells expressing the hM2 receptor; read-out: Ki value for blockade of oxotremorine-stimulated [35S]GTPγS-binding
T1 construct: expressed in transfected cells
T1 sequence (P08172 1-466): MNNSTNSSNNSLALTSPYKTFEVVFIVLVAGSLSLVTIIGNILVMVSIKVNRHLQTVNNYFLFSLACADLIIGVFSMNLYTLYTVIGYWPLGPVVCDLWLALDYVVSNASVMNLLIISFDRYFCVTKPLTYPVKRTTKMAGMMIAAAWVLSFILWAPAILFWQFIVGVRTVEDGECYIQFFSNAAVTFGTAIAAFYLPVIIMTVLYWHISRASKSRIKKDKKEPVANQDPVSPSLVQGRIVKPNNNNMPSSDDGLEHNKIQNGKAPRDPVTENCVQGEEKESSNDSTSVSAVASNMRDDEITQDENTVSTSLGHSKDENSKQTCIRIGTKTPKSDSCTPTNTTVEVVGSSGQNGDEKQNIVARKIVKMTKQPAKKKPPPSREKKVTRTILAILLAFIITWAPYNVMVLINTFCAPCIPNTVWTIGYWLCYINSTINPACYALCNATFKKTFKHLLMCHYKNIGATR
Experimental: In a second functional assay, the functional potency of test compounds is determined by measuring the ability of the compounds to block oxotremorine-stimulated [^35S]GTPγS binding in CHO-K1 cells expressing the hM2 receptor.
At the time of use, frozen membranes were thawed and then diluted in assay buffer with a final target tissue concentration of 5-10 μg protein per well. The membranes were briefly homogenized using a Polytron PT-2100 tissue disrupter and then added to the assay plates.
The EC90 value (effective concentration for 90% maximal response) for stimulation of [^35S]GTPγS binding by the agonist oxotremorine was determined in each experiment.
To determine the ability of a test compound to inhibit oxotremorine-stimulated [^35S]GTPγS binding, the following was added to each well of 96 well plates: 25 μL of assay buffer with [^35S]GTPγS (0.4 nM), 25 μL of oxotremorine (EC90) and GDP (3 uM), 25 μL of diluted test compound and 25 μL CHO cell membranes expressing the hM2 receptor. […] Microscint-20 scintillation liquid (50 μL) was added to each well, and each plate was sealed and radioactivity counted on a Topcounter (PerkinElmer). Data were analyzed by nonlinear regression analysis with the GraphPad Prism Software package (GraphPad Software, Inc., San Diego, Calif.) using the non-linear regression, one-site competition equation. […]

[1] = target: T2, human dopamine D2S receptor (Homo sapiens, UniProt P14416); assay: Radioligand competition binding assay in cloned human dopamine D2S receptor; conditions: test concentration 100 nM, 0.3 nM [3H]spiperone, transfected CHO cell membranes; read-out: percent inhibition of the control radioligand specific binding
T2 construct: expressed in transfected cells; host or cells: CHO cells, transfected, cell membrane homogenates
Experimental: In this assay, the binding affinity of test compounds for the human dopamine D2S receptor in transfected CHO cells is determined using a radioligand binding assay (Grady et al., Proc. Natl. Acad. Sci. USA 86:9762 (1989). Cell membrane homogenates (5-10 μg protein) were incubated for 60 minutes at 22° C. with 0.3 nM [^3H]spiperone in the absence or presence of a test compound in a buffer containing 50 mM Tris-HCl (pH 7.4), 120 mM NaCl, 5 mM KCl, 5 mM MgCl2 and 1 mM EDTA. The test compound was used at a test concentration of 100 nM. Nonspecific binding was determined in the presence of 10 μM (+)-butaclamol. Following incubation, the samples were filtered rapidly under vacuum through glass fiber filters (GF/B, Packard) presoaked with 0.3% polyethyleneimine and rinsed several times with ice-cold 50 mM Tris-HCl using a 96-sample cell harvester (Unifilter, Packard). The filters were dried, and then counted for radioactivity in a scintillation counter (Topcount, Packard) using a scintillation cocktail (Microscint 0, Packard). The results were expressed as a percent inhibition of the control radioligand specific binding.

T2 sequence (P14416 1-414 isoform P14416-2): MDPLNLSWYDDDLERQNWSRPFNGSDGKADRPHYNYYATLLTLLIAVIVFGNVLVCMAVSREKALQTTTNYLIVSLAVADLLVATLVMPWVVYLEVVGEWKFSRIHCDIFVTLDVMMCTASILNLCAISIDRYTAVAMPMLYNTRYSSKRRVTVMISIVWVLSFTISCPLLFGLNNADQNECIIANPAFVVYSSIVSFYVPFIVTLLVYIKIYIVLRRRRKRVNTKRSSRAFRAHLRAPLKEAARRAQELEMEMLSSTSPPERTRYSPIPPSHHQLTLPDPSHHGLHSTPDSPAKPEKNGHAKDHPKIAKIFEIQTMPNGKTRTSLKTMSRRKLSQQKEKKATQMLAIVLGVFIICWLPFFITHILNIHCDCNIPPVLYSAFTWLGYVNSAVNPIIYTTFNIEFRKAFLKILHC

Ki (hM2 receptor) [nM] | inhibition at 0.1 µM [1] [%] | Structure (SMILES)
< 10 | > 75 | O=C(Nc1ccccc1-c1ccccc1)OC1CCN(CCCCCCCCCNCCc2ccc(O)c3[nH]c(=O)sc23)CC1 [Example 1, Biphenyl-2-ylcarbamic Acid 1-{9-[2-(4-Hydroxy-2-oxo-2,3-dihydrobenzothiazol-7-yl)-ethylamino]nonyl}piperidin-4-yl Ester Bis(trifluoroacetate) Salt]
 | > 30 | O=C(CCN1CCC(OC(=O)Nc2ccccc2-c2ccccc2)CC1)Nc1ccc(CNCCc2ccc(O)c3[nH]c(=O)sc23)cc1 [Example 2, Biphenyl-2-ylcarbamic Acid 1-[2-(4-{[2-(4-Hydroxy-2-oxo-2,3-dihydrobenzothiazol-7-yl)ethylamino]methyl}phenylcarbamoyl)ethyl]-piperidin-4-yl Ester Bis(trifluoroacetate) Salt]

Source: US7838535B2, “Compounds having β2 adrenergic receptor agonist and muscarinic receptor antagonist activity” (Theravance, Inc., priority 2003, dated 2010)
